In patent publication US20070155730A1, “Benzodiazepine And Benzopiperazine Analog Inhibitors Of Histone Deacetylase” (METHYLGENE, INC., priority 2005, published 2007) one finds IC50 data, which are given here for 32 compounds.

The target of the assay is histone deacetylase (HDAC). The assay can be described thus: Inhibition of Histone Deacetylase Enzymatic Activity. It counts as biochemical. The conditions noted are these: substrate Boc-Lys(Ac)-AMC, Fluor-de-Lys developer, 37° C., 20 min; against one or more of HDAC-1 to HDAC-11, SirT1 to SirT7 (isoform not given); read-out: HDAC Inhibitory Activity (IC50). The method, then:
The following protocol is used to assay the compounds of the invention. In the assay, the buffer used is 25 mM HEPES, pH 8.0, 137 mM NaCl, 2.7 mM KCl, 1 mM MgCl2 and the substrate is Boc-Lys(Ac)-AMC in a 50 mM stock solution in DMSO. The enzyme stock solution is 4.08 μg/mL in buffer.
The compounds are pre-incubated (2 μl in DMSO diluted to 13 μl in buffer for transfer to assay plate) with enzyme (20 μl of 4.08 μg/mL) for 10 min at room temperature (35 μl pre-incubation volume). The mixture is pre-incubated for 5 min at room temperature. The reaction is started by bringing the temperature to 37° C. and adding 16 μl substrate. Total reaction volume is 50 μl. […] A plate is incubated in the dark for 10 min at room temperature before reading (λEX=360 nm, λEm=470 nm, Cutoff filter at 435 nm).
In the table, “A” indicates inhibitory activity at a concentration of <0.05 μM; “B” indicates inhibitory activity at a concentration >0.05 μM but <0.5 μM, “C” indicates inhibitory activity at >0.5 μM but <2 μM and “D” indicates inhibitory activity at a concentration of >2 μM but <10 μM.

The IC50 is the concentration that inhibits the measured activity by half. For `Nc1ccc(-c2cccs2)cc1NC(=O)c1ccc(-c2ccc3c(c2)NC(=O)[C@H](Cc2c[nH]c4ccccc24)N3)cc1` [Compound 62, 4-((S)-2-((1H-indol-3-yl)methyl)-1,2,3,4-tetrahydro-3-oxoquinoxalin-6-yl)-N-(2-amino-5-(thiophen-2-yl)phenyl)benzamide], the 50% inhibitory concentration (IC50) fell in the range of 50 to 500 nM.

On to `O=C(/C=C/c1ccc2c(c1)NC(=O)[C@H](Cc1c[nH]c3ccccc13)N2)NO` [Compound 66c, (E)-3-((S)-2-((1H-indol-3-yl)methyl)-1,2,3,4-tetrahydro-3-oxoquinoxalin-6-yl)-N-hydroxyacrylamide], for which the 50% inhibitory concentration (IC50) was 500 to 2000 nM.

Regarding `O=C(/C=C/c1ccc2c(c1)NC(=O)[C@@H](Cc1c[nH]c3ccccc13)N2)NO` [Compound 66f, (E)-3-((R)-2-((1H-indol-3-yl)methyl)-1,2,3,4-tetrahydro-3-oxoquinoxalin-6-yl)-N-hydroxyacrylamide], the IC50 was 50 to 500 nM.

Regarding `CC(C)C[C@@H]1NC(=O)c2ccccc2N(CCCCCC(=O)NO)C1=O` [Compound 68b1, 6-((S)-2,3,4,5-tetrahydro-3-isobutyl-2,5-dioxobenzo[e][1,4]diazepin-1-yl)-N-hydroxyhexanamide], the 50% inhibitory concentration (IC50) is 500 to 2000 nM.

With `CC(C)(C)C[C@@H]1NC(=O)c2ccccc2N(CCCCCC(=O)NO)C1=O` [Compound 68b3, 6-((S)-2,3,4,5-tetrahydro-3-neopentyl-2,5-dioxobenzo[e][1,4]diazepin-1-yl)-N-hydroxyhexanamide], the IC50 lay in the range of 50 to 500 nM.

For `O=C(CCCCCN1C(=O)[C@@H](c2ccccc2)NC(=O)c2ccccc21)NO` [Compound 68b4, 6-((R)-2,3,4,5-tetrahydro-2,5-dioxo-3-phenylbenzo[e][1,4]diazepin-1-yl)-N-hydroxyhexanamide], the IC50 lay within 50 to 500 nM.

`O=C(CCCCCN1C(=O)[C@H](Cc2c[nH]c3ccccc23)NC(=O)c2ccccc21)NO` [Compound 68b7, 6-((S)-3-((1H-Indol-3-yl)methyl)-2,3,4,5-tetrahydro-2,5-dioxobenzo[e][1,4]diazepin-1-yl)-N hydroxyhexanamide]: the IC50 was in the range of 2000 to 10000 nM.

As for `O=C(CCCCCN1C(=O)[C@@H](Cc2c[nH]c3ccccc23)NC(=O)c2ccccc21)NO` [Compound 68b8, 6-((R)-3-((1H-Hz, indol-3-yl)methyl)-2,3,4,5-tetrahydro-2,5-dioxobenzo[e][1,4]diazepin-1-yl)-N-hydroxyhexanamide], the IC50 was 50 to 500 nM.

For `O=C(CCCCCN1C(=O)[C@@H](Cc2ccncc2)NC(=O)c2ccccc21)NO` [Compound 68b9, 6-((R)-2,3,4,5-Tetrahydro-2,5-dioxo-3-((pyridin-4-yl)methyl)benzo [e][1,4]diazepin-1-yl)-N-hydroxyhexanamide], the half-maximal inhibitory concentration (IC50) fell in the range of 500 to 2000 nM.

As to `O=C(CCCCCN1C(=O)[C@H](c2ccccc2)NC(=O)c2ccccc21)NO` [Compound 68b11, 6-((S)-2,3,4,5-tetrahydro-2,5-dioxo-3-phenylbenzo[e][1,4]diazepin-1-yl)-N-hydro-xyhexanamide], the IC50 was in the range of 50 to 500 nM.

Take `CC(C)C[C@H]1NC(=O)c2ccccc2N(CCCCCC(=O)NO)C1=O` [Compound 68b12, 6-((R)-2,3,4,5-tetrahydro-3-isobutyl-2,5-dioxobenzo[e][1,4]diazepin-1-yl)-N-amide]: the IC50 was in the range of 50 to 500 nM.

With `O=C(CCCCCN1C(=O)C2(CCCC2)NC(=O)c2ccccc21)NO` [Compound 68b16, 6-(3,3-Spirocyclopentyl-2,5-dioxo-2,3,4,5, tetrahydrobenzo [e][1,4]diazepin-1-yl)-N-hydroxyhexanamide], the IC50 was 2000 to 10000 nM.

`CC(C)(C)C[C@H]1NC(=O)c2ccccc2N(CCCCCC(=O)NO)C1=O` [Compound 68b18, 6-((R)-2,3,4,5-Tetrahydro-3-neopentyl-2,5-dioxobenzo[e][1,4]diazepin-1-yl)-N-hydroxyhexanamide]: the IC50 was in the range of 50 to 500 nM.

With `O=C(CCCCCN1C(=O)[C@H](C2CCCCC2)NC(=O)c2ccccc21)NO` [Compound 68b19, 6-((S)-3-Cyclohexyl-2,3,4,5-tetrahydro-2,5-dioxobenzo[e][1,4]diazepin-1-yl)-N-hydroxyhexanamide], the IC50 fell in the range of 500 to 2000 nM.

For `O=C(CCCCCN1C(=O)[C@H](CC2CCCCC2)NC(=O)c2ccccc21)NO` [Compound 68b20, 6-((S)-3-(Cyclohexylmethyl)-2,3,4,5-tetrahydro-2,5-dioxobenzo[e][1,4]diazepin-1-yl)-N-hydroxyhexanamide], the IC50 fell in the range of 500 to 2000 nM.

For `O=C(CCCCCN1C(=O)[C@@H](CC2CCCCC2)NC(=O)c2ccccc21)NO` [Compound 68b21, 6-((R)-3-(cyclohexylmethyl)-2,3,4,5-tetrahydro-2,5-dioxobenzo[e][1,4]diazepin-1-yl)-N-hydroxyhexanamide], the IC50 lay within 50 to 500 nM.

On to `C[C@@H]1NC(=O)c2ccccc2N(CCCCCC(=O)NO)C1=O` [Compound 68b22, 6-((S)-2,3,4,5-Tetrahydro-3-methyl-2,5-dioxobenzo[e][1,4]diazepin-1-yl)-N-hydroxyhexanamide], for which the IC50 lay in the range of 500 to 2000 nM.

With `C[C@H]1NC(=O)c2ccccc2N(CCCCCC(=O)NO)C1=O` [Compound 68b23, 6-((R)-2,3,4,5-Tetrahydro-3-methyl-2,5-dioxobenzo[e][1,4]diazepin-1-yl)-N-hydroxyhexanamide], the 50% inhibitory concentration (IC50) fell in the range of 50 to 500 nM.

As to `O=C(CCc1ccc2c(c1)NC(=O)[C@H](Cc1c[nH]c3ccccc13)N2)NO` [Compound 69, 3-((S)-2-((1H-indol-3-yl)methyl)-1,2,3,4-tetrahydro-3-oxoquinoxalin-6-yl)-N-hydroxypropanamide], the half-maximal inhibitory concentration (IC50) was in the range of 500 to 2000 nM.

For `CC(C)C[C@H]1NC(=O)c2ccccc2N(CCCCCC(=O)Nc2ccccc2N)C1=O` [Compound 71, N-(2-Aminophenyl)-6-((R)-2,3,4,5-tetrahydro-3-isobutyl-2,5-dioxobenzo[e][1,4]diazepin-1-yl)hexanamide], the half-inhibitory concentration (IC50) fell in the range of 2000 to 10000 nM.

In the case of `CC(C)C[C@H]1NC(=O)c2ccccc2N(CCCCCC(=O)Nc2cscc2N)C1=O` [Compound 72, N-(4-Aminothiophen-3-yl)-6-((R)-2,3,4,5-tetrahydro-3-isobutyl-2,5-dioxobenzo[e][1,4]diazepin-1-yl)hexanamide], the IC50 was in the range of 2000 to 10000 nM.

For `O=C(CCCCCC1NC(=O)c2ccccc2NC1=O)NO` (centres unmarked) [Compound 74, 6-(2,3,4,5-Tetrahydro-2,5-dioxo-1H-benzo[e][1,4]diazepin-3-yl)-N-hydroxyhexanamide], the 50% inhibitory concentration (IC50) is 50 to 500 nM.

Take `O=C(CCCCCC1NC(=O)c2ccccc2N(CCc2c[nH]c3ccccc23)C1=O)NO` (centres unmarked) [Compound 79, 6-(1-(2-(1H-Indol-3-yl)ethyl)-2,3,4,5-tetrahydro-2,5-dioxo-1H-benzo[e][1,4]diazepin-3-yl)-N-hydroxyhexanamide]: the IC50 was 50 to 500 nM.

For `O=C(CCCCCC1NC(=O)c2ccccc2N(Cc2ccccc2)C1=O)NO` (centres unmarked) [Compound 80, 6-(1-Benzyl-2,3,4,5-tetrahydro-2,5-dioxo-1H-benzo[e][1,4]diazepin-3-yl)-N-hydroxyhexanamide], the IC50 is 50 to 500 nM.

Turning to `COc1cc(CN2C(=O)C(CCCCCC(=O)NO)NC(=O)c3ccccc32)cc(OC)c1` (centres unmarked) [Compound 81, 6-(1-(3,5-Dimethoxybenzyl)-2,3,4,5-tetrahydro-2,5-dioxo-1H-benzo[e][1,4]diazepin-3-yl)-N-hydroxyhexanamide], the IC50 lay within 500 to 2000 nM.

With `COc1ccc(CN2C(=O)C(CCCCCC(=O)NO)NC(=O)c3ccccc32)cc1` (centres unmarked) [Compound 82, 6-(1-(4-Methoxybenzyl)-2,3,4,5-tetrahydro-2,5-dioxo-1H-benzo[e][1,4]diazepin-3-yl)-N-hydroxyhexanamide], the half-inhibitory concentration (IC50) fell in the range of 500 to 2000 nM.

Turning to `O=C(CCCCCC1NC(=O)c2ccccc2N(CCc2ccccc2)C1=O)NO` (centres unmarked) [Compound 83, 6-(2,3,4,5-tetrahydro-2,5-dioxo-1-phenethyl-1H-benzo[e][1 ,4]diazepin-3-yl)-N-hydroxyhexanamide], the concentration for half-maximal inhibition (IC50) fell in the range of 500 to 2000 nM.

As for `O=C(CCCCCC1NC(=O)c2cc(Oc3ccccc3)ccc2NC1=O)NO` (centres unmarked) [Compound 88a, 6-(2,3,4,5-Tetrahydro-2,5-dioxo-7-phenoxy-1H-benzo[e][1,4]diazepin-3-yl)-N-hydroxyhexanamide], the half-maximal inhibitory concentration (IC50) was in the range of 50 to 500 nM.

As to `O=C(CCCCCC1NC(=O)c2cc(NC(=O)OCc3ccccc3)ccc2NC1=O)NO` (centres unmarked) [Compound 92a, 6-(7-Benzyloxycarbonylamino-2,3,4,5-tetrahydro-2,5-dioxo-1H-benzo[e][1,4]diazepin-3-yl)-N-hydroxyhexanamide], the IC50 is 50 to 500 nM.

With `O=C(CCCCC[C@@H]1NC(=O)c2cc(NC(=O)OCc3ccccc3)ccc2NC1=O)NO` [Compound 92b, (S)-Benzyl 3-(6-(hydroxyamino)-6-oxohexyl)-2,5-dioxo-2,3,4,5-tetrahydro-1H-benzo[e][1,4]diazepin-7-ylcarbamate], the IC50 was 50 to 500 nM.

Regarding `CC(C)[C@H]1NC(=O)c2ccc(C(=O)NO)cc2NC1=O` [Compound 97a, (R)—N-Hydroxy-3-isopropyl-2,5-dioxo-2,3,4,5-tetrahydro-1H-benzo[e][1,4]diazepine-8-carboxamide], the IC50 was in the range of 2000 to 10000 nM.

Regarding `CC(C)[C@@H]1NC(=O)c2ccc(C(=O)NO)cc2NC1=O` [Compound 97b, (S)-N-Hydroxy-3-isopropyl-2,5-dioxo-2,3,4,5-tetrahydro-1H-benzo[e][1,4]diazepine-8-carboxamide], the IC50 lay in the range of 2000 to 10000 nM.
